Experimental data published in US4368194A, “Pharmacologically active amine boranes” (The United States of America as represented by the …, priority 1981, dated 1983).
Read-outs that look alike come from different tables or passages of the source.

Tests used:
liver mitochondria [1] = experiment: Oxidative phosphorylation, succinate as substrate; assay type: biochemical, rats; settings: 5 μmoles; for Oxidative Phosphorylation Succinate State 3: ADP stimulated respiration; for Oxidative Phosphorylation Succinate State 4: basal respiration
Method: (§1) Basal and adenosine diphosphate stimulated respiration on 10% liver homogenates was measured using succinate or αketoglutarate as substrate. See Glatt, et al., supra. The reaction vessel contained sucrose 55μ moles, KCl 22μ moles, K2 HPO4 22μ moles, test compounds at 5μ moles in 1% CMC and sodium succinate 90μ moles or αketoglutarate 60μ moles in a total volume of 1.8 ml. […] The rate of respiration was calculated at μl of O2 consumed/hr/mg wet weight of liver.

Sprague Dawley rats = experiment: Red and white blood cell counts after 3 weeks dosing; assay type: in vivo
Excerpt: Hematocrits were also obtained.

Acid phosphatase [2] = experiment: Lysosomal free acid phosphatase activity, liver homogenate; assay type: biochemical, rats; settings: 5 μmoles, in vitro; 20 min
Method: (§2) Lysosomal enzymatic assays - Sprague Dawley rats (about 160 g) were sacrificed, the liver excised, and a 10% homogenate (4x) in 0.25 M sucrose and 0.001 M (ethylenedinitrilo) tetra acetic acid, ph 7.2 was prepared.
(§3) Acid phosphatase activity (Gianetto et al., Biochem J., 59, 433 1955) was carried out by incubating with 0.1 Mβ-glycerol phosphate in 0.1 M acetate, pH 5.0 with 5 μmoles of test drugs in 1% carboxymethylcellulose (CMC) for 20 min with liver homogenate and 60 min with resuspended PMNs. Lysosome enzymes were released by 0.02% alkyl phenoxy polyethoxy ethanol-100 to obtain the total enzymatic activity. The reaction was stopped with 10% trichloroacetic acid and the solution centrifuged. Aliquots of the supernatant were assayed for inorganic phophate content by the method of Chen et al., Anal Chem., 28, 1756 (1956). Percent free acid phosphatase was calculated. Cathepsin activity was determined in an analagous manner except the substrate used was 2% azocasein (Schleuning et al., Methods in Enzymology, XLV, 330 1976) in 0.1 M acetate buffer pH 5.0. The supernatant was assayed for acid soluble peptide fragments at 366 nm. Percent free cathepsin activity was calculated.

Acid phosphatase [3] = experiment: Lysosomal free acid phosphatase activity, PMNs; assay type: cell-based; settings: 5 μmoles, in vitro; 60 min
Method: (§4) Polymorphonuclear neutrophils (PMNs) were collected from the peritoneal cavity four hr after the injection of 35 ml of 0.5% oyster glycogen in isotonic saline (Orange et al., J. Exp. Med., 127, 767 1968). The PMNs were centrifuged down at 800 g for 20 min, washed, and resuspended in minumen essential medium (MEM) with 10% fetal calf serum pH 7.4.
as §3

Cathepsin [4] = experiment: Lysosomal free cathepsin activity, PMNs; assay type: cell-based; settings: 5 μmoles, in vitro; 60 min
Method: as §4, §3

liver mitochondria [5] = experiment: Oxidative phosphorylation, α-ketoglutarate as substrate; assay type: biochemical, rats; settings: 5 μmoles; for Oxidative Phosphorylation α Ketoglutarate State 3: ADP stimulated respiration; for Oxidative Phosphorylation α Ketoglutarate State 4: basal respiration
Method: as §1

[6] = target: T1, prostaglandin synthetase from beef seminal vesicle (Bos taurus, UniProt O62664); experiment: Prostaglandin synthetase activity; assay type: biochemical; settings: 10^-6 M; for activity at 1 µM: 1 h, read-out: Prostaglandin Synthesis; for inhibition at 1 µM: read-out: inhibition of prostaglandin synthesis
T1 construct: purchased; host or cells: beef seminal vesicle
T1 sequence (O62664 25-600): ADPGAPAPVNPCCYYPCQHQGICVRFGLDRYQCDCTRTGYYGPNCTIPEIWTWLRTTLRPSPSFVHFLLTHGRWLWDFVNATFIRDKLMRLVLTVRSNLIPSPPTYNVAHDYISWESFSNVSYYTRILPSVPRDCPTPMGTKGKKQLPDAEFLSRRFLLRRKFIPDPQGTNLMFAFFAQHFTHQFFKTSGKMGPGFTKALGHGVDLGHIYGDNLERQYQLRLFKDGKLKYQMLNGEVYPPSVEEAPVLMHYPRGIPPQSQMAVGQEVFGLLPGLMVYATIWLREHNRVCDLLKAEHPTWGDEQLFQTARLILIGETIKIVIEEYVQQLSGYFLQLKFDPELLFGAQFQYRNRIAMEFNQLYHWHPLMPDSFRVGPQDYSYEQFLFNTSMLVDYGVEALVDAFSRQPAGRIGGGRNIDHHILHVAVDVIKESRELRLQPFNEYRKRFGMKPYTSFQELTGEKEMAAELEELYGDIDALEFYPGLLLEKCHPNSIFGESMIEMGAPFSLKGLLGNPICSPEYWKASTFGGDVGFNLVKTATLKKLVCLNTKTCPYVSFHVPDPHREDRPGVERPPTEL
Method: After 1 hr at 37° C. the reaction was stopped with 1 N HCl and extracted with ethyl ether and evaporated. […] The plates were dried and developed in iodine vapor and with the use of prostaglandin standards the appropriate areas were scraped and counted for ^3 H content. Indometacin was used as a standard at 10^-4 M concentration. Test drugs were used at 10^-6 M.

cAMP levels in PMNs = experiment: Cyclic-3',5'-adenosine monophosphate levels (cAMP) in PMNs; assay type: cell-based
Method: as §4
Isolated PMNs were incubated with test drugs at 5μ moles for 1 hr at 37° C. in MEM at pH 7.4. The reaction was stopped with 6% trichloroacetic acid. The cyclic-3',5'-adenosine monophosphate levels were determined by the radioimmunoassay of Gilman, Proc. Natl. Acad. Sci. (USA), 67, 305 (1970), using 3H(G)-cyclic-3',5'-adenosine monophosphate (39.8 Cu/m mol). Results were calculated in p mole/10^7 PMNs cells.

[7] = tested on: carrageenan induced edema in mouse foot pads; experiment: Anti-inflammatory screen (carrageenan induced foot edema); assay type: in vivo, mice; settings: for Anti-inflammatory Screen: mice; for inhibition of the carrageenan induced edema in mouse foot pads: text summary of Table II
Method: CF1 male mice (about 30 g) were administered test drugs at 10 mg/kg in 0.05% polysorbate .80-water intraperitoneally 3 hr and 30 min prior to 0.05 ml of 2% carrageenan in 0.9% saline injected into the plantar surface of the right hind foot. Saline injected into the left hind foot served as a base line. After 3 hr, both feet were excised at the tibiotarsal (ankle) joint according to the modified (Roszkowski et al., J. Pharm. Exp. Ther., 179, 114 1971) method of Winter, resulting in an 87 mg net increase in the weight of the control animals' feet.

Cathepsin [8] = experiment: Lysosomal free cathepsin activity, liver homogenate; assay type: biochemical, rats; settings: 5 μmoles; for Liver % Free Cathepsin Activity, pH5: in vitro, 20 min
Method: as §2, §3

CF1 male mice = experiment: Writhing reflex (acetic acid); assay type: in vivo; settings: for Writhing Reflex: 20 mg/kg intraperitoneally, mice; for inhibition of the writhing reflex: text summary of Table II
Method: CF1 male mice were administered test drugs at 20 mg/kg intraperitoneally 20 min (see Hendershat et al., J. Pharmacol Exp. Ther. 125, 237 1959) prior to the administration of 0.5 ml of 0.6% acetic acid (Vingar et al., European J. PHarmacol, 37, 23 1976). After 5 min the number of stretches, characterized by repeated contractures of the abdominal musculature accompanied by extension of the hind limbs, was counted for the next 10 min. The control mice had 78 stretch reflexes per 10 min.

in vivo = settings: mouse
[9] = 1 h, pH 7.4, 5 μmoles, in vitro, read-out: PMNs cAMP Level

Compound | Oxidative Phosphorylation Succinate State 3 (liver mitochondria [1]) | Oxidative Phosphorylation Succinate State 4 (liver mitochondria [1]) | Liver % Free Acid Phosphatase Activity, pH5 (Acid phosphatase [2]) | PMNs % Free Acid Phosphatase Activity, pH5 (Acid phosphatase [3]) | PMNs % Free Cathespin Activity, pH5 (Cathepsin [4]) | Oxidative Phosphorylation α Ketoglutarate State 3 (liver mitochondria [5]) | Oxidative Phosphorylation α Ketoglutarate State 4 (liver mitochondria [5]) | activity at 1 µM [6] | activity at 5 µmol (cAMP levels in PMNs; [9]) | Anti-inflammatory Screen ([7]; 10 mg/kg × 2 intraperitoneally) | inhibition of the carrageenan induced edema in mouse foot pads [7] | Liver % Free Cathepsin Activity, pH5 (Cathepsin [8]) | Writhing Reflex (CF1 male mice) | inhibition of the writhing reflex (CF1 male mice) | both states 3 and 4 respiration with succinate (liver mitochondria [1]) | inhibition at 1 µM [6] | LD50 (in vivo) | also measured
[BH3-][NH+]1CCOCC1 [Compound II, O(CH2 CH2)2 NH.BH3] | 66 ± 10 % Control | 115 ± 15 % Control | 75 ± 8 % Control | 79 ± 5 % Control | 93 ± 7 % Control | 50 ± 11 % Control | 97 ± 29 % Control | 100 ± 5% | 107% | 55 % Control | at least 40% | 107 ± 6 % Control | 15 % Control | 80% | – | – | – | alteration of the red blood or white blood cell count/cu mm (Sprague Dawley rats; dosing for three weeks intraperitoneally, rats): no alteration
C[N+](C)([BH2-]C(=O)O)CC[N+](C)(C)[BH2-]C(=O)O [XII, N,N,N^1,N^1 -Tetramethylethylenediamine-bis(carboxyborane)] | 57 ± 16 % Control | 80 ± 11 % Control | 69 ± 5 % Control | 84 ± 4 % Control | 52 ± 4 % Control | 48 ± 30 % Control | 122 ± 15 % Control | 60 ± 6% | 155% | 58 % Control | at least 40% | 23 ± 6 % Control | 54 % Control | – | inhibited | > 30% | > 1000 mg/kg | uncoupling with α-ketoglutarate as substrate (liver mitochondria [5]): uncoupling; activation at 5 µmol (cAMP levels in PMNs; 1 h, in vitro incubation, 5 μmoles, read-out: increase of cyclic adenosine monophosphate levels in PMNs): 55%; inhibition of free proteolytic cathepsin activity of liver (Cathepsin [8]): at least 75%
N#C[BH2-][n+]1ccccc1 [XV, pyridinecyanoborane] | 57 ± 16 % Control | 124 ± 16 % Control | 79 ± 3 % Control | 57 ± 4 % Control | 49 ± 7 % Control | 52 ± 15 % Control | 112 ± 42 % Control | 58 ± 3% | 110% | – | – | 57 ± 4 % Control | 80 % Control | – | – | > 30% | 25 mg/kg | Anti-inflammatory Screen ([7]; 1/3 dose (of 10 mg/kg × 2)): 83 % Control
N#C[BH2-][NH2+]CC[NH2+][BH2-]C#N [XX, Ethylenediamine-bis(cyanoborane)] | 10 ± 5 % Control | 13 ± 5 % Control | 77 ± 8 % Control | 100 ± 10 % Control | 57 ± 2 % Control | 25 ± 8 % Control | 50 ± 18 % Control | 81 ± 5% | – | 87 % Control | – | 80 ± 7 % Control | 95 % Control | – | inhibited | – | > 150 mg/kg | both states 3 and 4 respiration with α-ketoglutarate (liver mitochondria [5]): inhibited; activity at 5 µmol (cAMP levels in PMNs; 1 h, pH 7.4, read-out: PMNs cAMP Level): 28%
[Na{H3 N.BH2 (CN)}6 ]I [Compound X] | – | – | – | – | 0 ± 3 % Control | – | – | – | – | 57 % Control | at least 40% | – | 12 % Control | 80% | – | – | – | alteration of the red blood or white blood cell count/cu mm (Sprague Dawley rats; rat, in vivo, ip): no alteration; Prostaglandin Synthesis ([6]; 60 min, 1 µM): 42 ± 5 % Control; PMNs cAMP Level (cAMP levels in PMNs; 5 μmoles, in vitro, 60 min): 361 % Control; increase of cyclic adenosine monophosphate levels in PMNs (cAMP levels in PMNs; in vitro incubation, 5 μmoles): 261%
